Experiments:
[1] = related art statement; cited from earlier work
[2] = Thermal decomposition temperature by thermogravimetric-differential thermal analyzer TG/DTA 6200; assay type: physicochemical
Experimental: A thermal decomposition temperature of bis-4,4′-(2-ethoxycarbonyl-1-ethenyl)-2,2′-methoxyphenoxymethane prepared in Example 1 was determined by using a thermogravimetric-differential thermal simultaneous analyzer “TG/DTA 6200” (commercially available from Seiko Instruments Inc.).
A thermal decomposition temperature of bis-4,4′-(2-2-ethyl-1-hexyloxycarbonyl-1-ethenyl)-2,2′-methoxyphenoxymethane prepared in Example 9 was determined by using a thermogravimetric-differential thermal simultaneous analyzer “TG/DTA 6200” (commercially available from Seiko Instruments Inc.).
A thermal decomposition temperature of bis-4,4′-(2-dodecyloxycarbonyl-1-ethenyl)-2,2′-methoxyphenoxymethane prepared in Example 10 was determined by using a thermogravimetric-differential thermal simultaneous analyzer “TG/DTA 6200” (commercially available from Seiko Instruments Inc.).

| Structure (SMILES) | decomposition temperature [1] | thermal decomposition point [2] |
| --- | --- | --- |
| COc1cc(/C=C/C(=O)O)ccc1O [ferulic acid] | 176 °C | – |
| CCCCC(CC)COC(=O)C=Cc1ccc(OCOc2ccc(C=CC(=O)OCC(CC)CCCC)cc2OC)c(OC)c1 (stereo not shown) [Example 9, Bis-4,4′-(2-2-ethyl-1-hexyloxycarbonyl-1-ethenyl)-2,2′-methoxyphenoxymethane] | – | 355 °C |
| CCCCCCCCCCCCOC(=O)C=Cc1ccc(OCOc2ccc(C=CC(=O)OCCCCCCCCCCCC)cc2OC)c(OC)c1 [Example 10, Bis-4,4′-(2-dodecyloxycarbonyl-1-ethenyl)-2,2′-methoxyphenoxymethane] | – | 318 °C |
| CCOC(=O)C=Cc1ccc(OCOc2ccc(C=CC(=O)OCC)cc2OC)c(OC)c1 [Example 1, Bis-4,4′-(2-ethoxycarbonyl-1-ethenyl)-2,2′-methoxyphenoxymethane] | – | 359 °C |

— US6890520B2, “Thermally stable ferulic acid derivatives” (Wakayama Prefecture, priority 2003, dated 2005)
